{"source": "PubChem BioAssay AID2060506", "about": "(Molecular Pharmacology Branch, DTP, NCI, 2025)", "test_system": "598228-144-R-J1-PDC complex spheroid viability", "experiment": "Anticancer human tumor 598228-144-R-J1-PDC patient-derived serous endometrial adenocarcinoma cell line growth inhibition [GQUAD]", "conditions": "for IC50: curve of first compound; for viability, T/C: stronger effect = lower value", "in_short": "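Multi-cell-type spheroids of tumor cells with HUVEC and mesenchymal stem cells, treated with drug combinations. Concentrations descend in half-log steps from near clinical Cmax, or from 10 microM where Cmax is unknown; viability read-out.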", "key": {"[1]": {"conditions": "second compound 0.0316 µM, first compound 0.0316 µM"}, "[2]": {"conditions": "second compound 0.0316 µM, first compound 0.1 µM"}, "[3]": {"conditions": "second compound 0.0316 µM, first compound 0.316 µM"}, "[4]": {"conditions": "second compound 0.0316 µM, first compound 1 µM"}, "[5]": {"conditions": "second compound 0.0316 µM, first compound 3.16 µM"}, "[6]": {"conditions": "second compound 0.0316 µM, first compound 10 µM"}, "[7]": {"conditions": "second compound 0.1 µM, first compound 0.0316 µM"}, "[8]": {"conditions": "second compound 0.1 µM, first compound 0.1 µM"}, "[9]": {"conditions": "second compound 0.1 µM, first compound 0.316 µM"}, "[10]": {"conditions": "second compound 0.1 µM, first compound 1 µM"}, "[11]": {"conditions": "second compound 0.1 µM, first compound 3.16 µM"}, "[12]": {"conditions": "second compound 0.1 µM, first compound 10 µM"}, "[13]": {"conditions": "second compound 0.316 µM, first compound 0.0316 µM"}, "[14]": {"conditions": "second compound 0.316 µM, first compound 0.1 µM"}, "[15]": {"conditions": "second compound 0.316 µM, first compound 0.316 µM"}, "[16]": {"conditions": "second compound 0.316 µM, first compound 1 µM"}, "[17]": {"conditions": "second compound 0.316 µM, first compound 3.16 µM"}, "[18]": {"conditions": "second compound 0.316 µM, first compound 10 µM"}, "[19]": {"conditions": "second compound 1 µM, first compound 0.0316 µM"}, "[20]": {"conditions": "second compound 1 µM, first compound 0.1 µM"}, "[21]": {"conditions": "second compound 1 µM, first compound 0.316 µM"}, "[22]": {"conditions": "second compound 1 µM, first compound 1 µM"}, "[23]": {"conditions": "second compound 1 µM, first compound 3.16 µM"}, "[24]": {"conditions": "second compound 1 µM, first compound 10 µM"}, "[25]": {"conditions": "second compound 3.16 µM, first compound 0.0316 µM"}, "[26]": {"conditions": "second compound 3.16 µM, first compound 0.1 µM"}, "[27]": {"conditions": "second compound 3.16 µM, first compound 0.316 µM"}, "[28]": {"conditions": "second compound 3.16 µM, first compound 1 µM"}, "[29]": {"conditions": "second compound 3.16 µM, first compound 3.16 µM"}, "[30]": {"conditions": "second compound 3.16 µM, first compound 10 µM"}, "[31]": {"conditions": "second compound 10 µM, first compound 0.0316 µM"}, "[32]": {"conditions": "second compound 10 µM, first compound 0.1 µM"}, "[33]": {"conditions": "second compound 10 µM, first compound 0.316 µM"}, "[34]": {"conditions": "second compound 10 µM, first compound 1 µM"}, "[35]": {"conditions": "second compound 10 µM, first compound 3.16 µM"}, "[36]": {"conditions": "second compound 10 µM, first compound 10 µM"}}}
{"molecule": "COc1cc(C2c3cc4c(cc3C(OC3OC5COC(C)OC5C(O)C3O)C3COC(=O)C23)OCO4)cc(OC)c1O", "note": "(centres undefined) + CN(C)c1ccc(Nc2c3ccc(NC(=O)CCN4CCCC4)cc3nc3cc(NC(=O)CCN4CCCC4)ccc23)cc1;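 further: spheroids exposed to the agents for one week before reading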;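 on viability, T/C: percent of vehicle DMSO control viability so 100% = untreated growth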", "values": [{"measurement": "IC50", "setting": "second compound 0.0316 µM", "result": 8170, "unit": "nM"}, {"measurement": "IC50", "setting": "second compound 0.1 µM", "result": 5140, "unit": "nM"}, {"measurement": "IC50", "setting": "second compound 0.316 µM", "result": 5390, "unit": "nM"}, {"measurement": "IC50", "setting": "second compound 1 µM", "result": 898, "unit": "nM"}, {"measurement": "IC50", "setting": "second compound 3.16 µM", "result": 5140, "unit": "nM"}, {"measurement": "IC50", "setting": "second compound 10 µM", "result": 471, "unit": "nM"}, {"measurement": "viability, T/C", "setting": "[1]", "result": 114, "unit": "%"}, {"measurement": "viability, T/C", "setting": "[2]", "result": 105, "unit": "%"}, {"measurement": "viability, T/C", "setting": "[3]", "result": 75.5, "unit": "%"}, {"measurement": "viability, T/C", "setting": "[4]", "result": 65.5, "unit": "%"}, {"measurement": "viability, T/C", "setting": "[5]", "result": 71.5, "unit": "%"}, {"measurement": "viability, T/C", "setting": "[6]", "result": 42.1, "unit": "%"}, {"measurement": "viability, T/C", "setting": "[7]", "result": 102, "unit": "%"}, {"measurement": "viability, T/C", "setting": "[8]", "result": 84.2, "unit": "%"}, {"measurement": "viability, T/C", "setting": "[9]", "result": 78.6, "unit": "%"}, {"measurement": "viability, T/C", "setting": "[10]", "result": 61.3, "unit": "%"}, {"measurement": "viability, T/C", "setting": "[11]", "result": 61.5, "unit": "%"}, {"measurement": "viability, T/C", "setting": "[12]", "result": 40.3, "unit": "%"}, {"measurement": "viability, T/C", "setting": "[13]", "result": 103, "unit": "%"}, {"measurement": "viability, T/C", "setting": "[14]", "result": 95, "unit": "%"}, {"measurement": "viability, T/C", "setting": "[15]", "result": 70.8, "unit": "%"}, {"measurement": "viability, T/C", "setting": "[16]", "result": 61.6, "unit": "%"}, {"measurement": "viability, T/C", "setting": "[17]", "result": 65.4, "unit": "%"}, {"measurement": "viability, T/C", "setting": "[18]", "result": 39.6, "unit": "%"}, {"measurement": "viability, T/C", "setting": "[19]", "result": 93.6, "unit": "%"}, {"measurement": "viability, T/C", "setting": "[20]", "result": 114, "unit": "%"}, {"measurement": "viability, T/C", "setting": "[21]", "result": 71.3, "unit": "%"}, {"measurement": "viability, T/C", "setting": "[22]", "result": 55.9, "unit": "%"}, {"measurement": "viability, T/C", "setting": "[23]", "result": 54.9, "unit": "%"}, {"measurement": "viability, T/C", "setting": "[24]", "result": 32.5, "unit": "%"}, {"measurement": "viability, T/C", "setting": "[25]", "result": 95, "unit": "%"}, {"measurement": "viability, T/C", "setting": "[26]", "result": 75.6, "unit": "%"}, {"measurement": "viability, T/C", "setting": "[27]", "result": 80, "unit": "%"}, {"measurement": "viability, T/C", "setting": "[28]", "result": 56.4, "unit": "%"}, {"measurement": "viability, T/C", "setting": "[29]", "result": 70.3, "unit": "%"}, {"measurement": "viability, T/C", "setting": "[30]", "result": 35.7, "unit": "%"}, {"measurement": "viability, T/C", "setting": "[31]", "result": 92.9, "unit": "%"}, {"measurement": "viability, T/C", "setting": "[32]", "result": 71.8, "unit": "%"}, {"measurement": "viability, T/C", "setting": "[33]", "result": 53, "unit": "%"}, {"measurement": "viability, T/C", "setting": "[34]", "result": 40.7, "unit": "%"}, {"measurement": "viability, T/C", "setting": "[35]", "result": 60.3, "unit": "%"}, {"measurement": "viability, T/C", "setting": "[36]", "result": 34.9, "unit": "%"}]}
{"molecule": "COc1cccc2c1C(=O)c1c(O)c3c(c(O)c1C2=O)CC(O)(C(=O)CO)CC3OC1CC(N)C(O)C(C)O1", "note": "(centres undefined) + CN(C)c1ccc(Nc2c3ccc(NC(=O)CCN4CCCC4)cc3nc3cc(NC(=O)CCN4CCCC4)ccc23)cc1", "values": [{"measurement": "IC50", "setting": "second compound 0.0316 µM", "result": 547, "unit": "nM"}, {"measurement": "IC50", "setting": "second compound 0.1 µM", "result": 586, "unit": "nM"}, {"measurement": "IC50", "setting": "second compound 0.316 µM", "result": 617, "unit": "nM"}, {"measurement": "IC50", "setting": "second compound 1 µM", "result": 655, "unit": "nM"}, {"measurement": "IC50", "setting": "second compound 3.16 µM", "result": 774, "unit": "nM"}, {"measurement": "IC50", "setting": "second compound 10 µM", "result": 536, "unit": "nM"}, {"measurement": "viability, T/C", "setting": "[1]", "result": 79.1, "unit": "%"}, {"measurement": "viability, T/C", "setting": "[2]", "result": 83.3, "unit": "%"}, {"measurement": "viability, T/C", "setting": "[3]", "result": 66.6, "unit": "%"}, {"measurement": "viability, T/C", "setting": "[4]", "result": 31, "unit": "%"}, {"measurement": "viability, T/C", "setting": "[5]", "result": 1.02, "unit": "%"}, {"measurement": "viability, T/C", "setting": "[6]", "result": 0.57, "unit": "%"}, {"measurement": "viability, T/C", "setting": "[7]", "result": 95.5, "unit": "%"}, {"measurement": "viability, T/C", "setting": "[8]", "result": 84.8, "unit": "%"}, {"measurement": "viability, T/C", "setting": "[9]", "result": 71, "unit": "%"}, {"measurement": "viability, T/C", "setting": "[10]", "result": 33.5, "unit": "%"}, {"measurement": "viability, T/C", "setting": "[11]", "result": 2.25, "unit": "%"}, {"measurement": "viability, T/C", "setting": "[12]", "result": 0.29, "unit": "%"}, {"measurement": "viability, T/C", "setting": "[13]", "result": 96.1, "unit": "%"}, {"measurement": "viability, T/C", "setting": "[14]", "result": 73.2, "unit": "%"}, {"measurement": "viability, T/C", "setting": "[15]", "result": 68.9, "unit": "%"}, {"measurement": "viability, T/C", "setting": "[16]", "result": 42.2, "unit": "%"}, {"measurement": "viability, T/C", "setting": "[17]", "result": 3.61, "unit": "%"}, {"measurement": "viability, T/C", "setting": "[18]", "result": 0.89, "unit": "%"}, {"measurement": "viability, T/C", "setting": "[19]", "result": 87.1, "unit": "%"}, {"measurement": "viability, T/C", "setting": "[20]", "result": 73.7, "unit": "%"}, {"measurement": "viability, T/C", "setting": "[21]", "result": 58.4, "unit": "%"}, {"measurement": "viability, T/C", "setting": "[22]", "result": 51.9, "unit": "%"}, {"measurement": "viability, T/C", "setting": "[23]", "result": 1.46, "unit": "%"}, {"measurement": "viability, T/C", "setting": "[24]", "result": 1.05, "unit": "%"}, {"measurement": "viability, T/C", "setting": "[25]", "result": 81.6, "unit": "%"}, {"measurement": "viability, T/C", "setting": "[26]", "result": 80.1, "unit": "%"}, {"measurement": "viability, T/C", "setting": "[27]", "result": 71.6, "unit": "%"}, {"measurement": "viability, T/C", "setting": "[28]", "result": 44.3, "unit": "%"}, {"measurement": "viability, T/C", "setting": "[29]", "result": 1.7, "unit": "%"}, {"measurement": "viability, T/C", "setting": "[30]", "result": 0.36, "unit": "%"}, {"measurement": "viability, T/C", "setting": "[31]", "result": 59.8, "unit": "%"}, {"measurement": "viability, T/C", "setting": "[32]", "result": 64.5, "unit": "%"}, {"measurement": "viability, T/C", "setting": "[33]", "result": 47.7, "unit": "%"}, {"measurement": "viability, T/C", "setting": "[34]", "result": 42.3, "unit": "%"}, {"measurement": "viability, T/C", "setting": "[35]", "result": 1.22, "unit": "%"}, {"measurement": "viability, T/C", "setting": "[36]", "result": 0.77, "unit": "%"}]}
